We go through 21 compounds from patent publication US10981911B2, “Imidazopyrrolopyridine as inhibitors of the JAK family of kinases” (Janssen Pharmaceutica NV, priority 2016, dated 2021).

The structures appear in SMILES notation.

Common to all, as to type: biochemical
In one experiment the target is Tyk2-JH1JH2 (Homo sapiens (Human), UniProt P29597, C1142A/C936A). The experiment can be described thus: Enzymatic inhibition assay (RapidFire HTMS), Tyk2. As to conditions: 50 μM ATP, 200 μM substrate. The gist of the method: (§1)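 Quenched with 0.5% TFA plus internal-standard peptide; phosphorylated product quantified by RapidFire C4 SPE–ESI-MS, 11-point 1:3 or 1:4 dilutions in duplicate.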
Sequence of Tyk2-JH1JH2 (P29597 580-1182 C936A/C1142A): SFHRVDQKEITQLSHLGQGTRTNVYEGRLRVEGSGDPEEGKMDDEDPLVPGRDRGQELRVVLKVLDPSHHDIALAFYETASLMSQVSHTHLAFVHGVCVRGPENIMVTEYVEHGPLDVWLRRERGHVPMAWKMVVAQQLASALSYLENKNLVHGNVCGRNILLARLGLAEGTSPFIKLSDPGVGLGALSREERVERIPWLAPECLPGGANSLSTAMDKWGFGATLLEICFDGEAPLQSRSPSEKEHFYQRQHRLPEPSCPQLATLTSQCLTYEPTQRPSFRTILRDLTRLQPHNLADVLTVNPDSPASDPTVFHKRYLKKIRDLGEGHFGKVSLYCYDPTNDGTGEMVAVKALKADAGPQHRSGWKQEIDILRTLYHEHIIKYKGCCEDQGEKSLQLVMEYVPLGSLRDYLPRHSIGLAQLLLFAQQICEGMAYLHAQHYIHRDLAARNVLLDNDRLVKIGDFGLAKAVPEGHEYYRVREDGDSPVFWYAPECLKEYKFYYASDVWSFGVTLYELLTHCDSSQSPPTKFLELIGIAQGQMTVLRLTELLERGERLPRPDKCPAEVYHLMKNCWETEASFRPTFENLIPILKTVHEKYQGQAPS

The target of a further experiment is JAK3-JH1JH2 (Homo sapiens (Human), UniProt P52333). The experiment can be described thus: Enzymatic inhibition assay (RapidFire HTMS), JAK3. As to conditions: 150 μM ATP, 40 μM substrate. The gist of the method: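 JAK3 JH1JH2 reaction incubated 45 min at 25 °C, then quenched with 0.5% TFA containing 0.15 μM internal standard peptide. Phosphopeptide product measured by RapidFire C4 SPE–ESI MS (positive mode); inhibition from product decrease versus uninhibited enzyme, 11-point 1:3 or 1:4 dilutions in duplicate.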
Sequence of JAK3-JH1JH2 (P52333 512-1124): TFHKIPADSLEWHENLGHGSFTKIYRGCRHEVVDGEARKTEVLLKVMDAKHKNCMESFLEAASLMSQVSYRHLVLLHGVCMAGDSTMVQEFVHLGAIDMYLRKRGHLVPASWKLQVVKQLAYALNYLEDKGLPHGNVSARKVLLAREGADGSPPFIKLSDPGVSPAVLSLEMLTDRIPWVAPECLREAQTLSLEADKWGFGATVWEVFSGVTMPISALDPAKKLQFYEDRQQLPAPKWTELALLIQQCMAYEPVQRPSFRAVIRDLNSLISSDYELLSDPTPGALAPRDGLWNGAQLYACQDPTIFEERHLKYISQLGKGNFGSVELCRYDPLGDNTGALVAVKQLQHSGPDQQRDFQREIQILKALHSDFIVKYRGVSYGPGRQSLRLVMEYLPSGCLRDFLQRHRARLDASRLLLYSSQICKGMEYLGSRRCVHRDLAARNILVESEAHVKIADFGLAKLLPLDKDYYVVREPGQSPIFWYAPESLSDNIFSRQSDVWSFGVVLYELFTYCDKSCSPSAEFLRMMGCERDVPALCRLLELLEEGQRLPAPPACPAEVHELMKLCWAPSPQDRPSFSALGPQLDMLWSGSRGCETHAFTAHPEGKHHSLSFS

A further experiment concerns the target JAK2-JH1JH2 (Homo sapiens (Human), UniProt O60674). Description: Enzymatic inhibition assay (RapidFire HTMS), JAK2. The note with it: 30 μM ATP, 40 μM substrate. Summed up: as §1
The next experiment has as its target JAK1-JH1JH2 (Homo sapiens (Human), UniProt P23458). Description: Enzymatic inhibition assay (RapidFire HTMS), JAK1. The note with it: 12.5 μM ATP, 200 μM substrate; read-out: JAK1-JH2JH1 IC50. Summed up: as §1

Sequence of JAK1-JH1JH2 (P23458 574-1154): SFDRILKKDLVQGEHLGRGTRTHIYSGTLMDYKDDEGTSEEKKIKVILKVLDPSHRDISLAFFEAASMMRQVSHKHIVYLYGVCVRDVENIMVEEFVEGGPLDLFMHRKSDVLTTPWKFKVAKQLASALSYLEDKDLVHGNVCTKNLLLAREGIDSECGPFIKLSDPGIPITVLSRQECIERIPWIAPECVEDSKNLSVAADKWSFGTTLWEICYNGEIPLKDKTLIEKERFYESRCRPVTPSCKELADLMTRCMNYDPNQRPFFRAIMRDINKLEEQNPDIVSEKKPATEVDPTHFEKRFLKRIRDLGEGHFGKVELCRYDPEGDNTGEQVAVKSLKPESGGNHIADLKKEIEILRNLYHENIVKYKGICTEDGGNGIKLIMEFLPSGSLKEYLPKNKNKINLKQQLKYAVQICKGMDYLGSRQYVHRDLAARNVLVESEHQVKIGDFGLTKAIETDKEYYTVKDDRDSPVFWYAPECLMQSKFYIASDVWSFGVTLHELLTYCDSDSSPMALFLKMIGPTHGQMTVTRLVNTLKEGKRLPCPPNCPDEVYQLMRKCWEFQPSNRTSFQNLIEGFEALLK
Sequence of JAK2-JH1JH2 (O60674 532-1132): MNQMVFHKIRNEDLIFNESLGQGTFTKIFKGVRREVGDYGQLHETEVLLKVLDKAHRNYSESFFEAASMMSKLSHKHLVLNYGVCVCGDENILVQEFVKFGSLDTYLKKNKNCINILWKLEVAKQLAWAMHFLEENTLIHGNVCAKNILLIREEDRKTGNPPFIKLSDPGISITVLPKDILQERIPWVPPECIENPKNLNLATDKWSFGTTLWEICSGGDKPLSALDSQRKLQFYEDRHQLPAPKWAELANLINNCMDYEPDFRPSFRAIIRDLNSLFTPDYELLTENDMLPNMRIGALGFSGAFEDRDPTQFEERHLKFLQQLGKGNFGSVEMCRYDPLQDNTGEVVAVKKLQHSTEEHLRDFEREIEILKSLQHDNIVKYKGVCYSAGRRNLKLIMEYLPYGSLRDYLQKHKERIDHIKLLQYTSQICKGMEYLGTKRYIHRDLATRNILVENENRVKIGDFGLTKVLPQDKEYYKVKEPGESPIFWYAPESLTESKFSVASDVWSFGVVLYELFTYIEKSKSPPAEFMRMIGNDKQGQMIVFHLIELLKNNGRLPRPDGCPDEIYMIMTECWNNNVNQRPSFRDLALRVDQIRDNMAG

By IC50 is commonly meant the midpoint of a concentration-inhibition curve. On to `N#CC[C@H]1CC[C@H](n2c(CC(=O)N3CCC(F)(F)CC3)nc3cnc4[nH]ccc4c32)CC1` [Ex. 107, 2-((1r,4r)-4-(2-(2-(4,4-Difluoropiperidin-1-yl)-2-oxoethyl)imidazo[4,5-d]pyrrolo[2,3-b]pyridin-1(6H)-yl)cyclohexyl)acetonitrile], for which the half-maximal inhibitory concentration (IC50) against Tyk2-JH1JH2 was found to be 5.1 nM; against JAK3-JH1JH2 it was 142 nM; on JAK2-JH1JH2 it was 18.2 nM; at JAK1-JH1JH2, 0.6 nM.

For the compound `N#CC[C@H]1CC[C@H](n2c(COC(=O)Nc3ccccc3)nc3cnc4[nH]ccc4c32)CC1` [Ex. 109, (1-((1r,4r)-4-(Cyanomethyl)cyclohexyl)-1,6-dihydroimidazo[4,5-d]pyrrolo[2,3-b]pyridin-2-yl)methyl Phenylcarbamate], the 50% inhibitory concentration (IC50) on Tyk2-JH1JH2 was 11.3 nM; against JAK3-JH1JH2, 135 nM; on JAK2-JH1JH2 it was 7.5 nM; on JAK1-JH1JH2, 0.6 nM.

Turning to `N#CC[C@H]1CC[C@H](n2c(CN/C(=N\O)C3CC3)nc3cnc4[nH]ccc4c32)CC1` [Ex. 110, (EZ)—N-((1-((1r,4r)-4-(Cyanomethyl)cyclohexyl)-1,6-dihydroimidazo[4,5-d]pyrrolo[2,3-b]pyridin-2-yl)methyl)-N′-hydroxycyclopropanecarboximidamide], the IC50 stood at 17.4 nM against Tyk2-JH1JH2, 416 nM at JAK3-JH1JH2, 29 nM on JAK2-JH1JH2 and 0.6 nM on JAK1-JH1JH2.

Regarding `N#CC[C@H]1CC[C@H](n2c(CC(=O)Nc3cccnc3)nc3cnc4[nH]ccc4c32)CC1` [Ex. 111, 2-(1-((1r,4r)-4-(Cyanomethyl)cyclohexyl)-1,6-dihydroimidazo[4,5-d]pyrrolo[2,3-b]pyridin-2-yl)-N-(pyridin-3-yl)acetamide], the IC50 at Tyk2-JH1JH2 came to 6.3 nM; on JAK3-JH1JH2 it was 68 nM; on JAK2-JH1JH2, 4 nM; on JAK1-JH1JH2, 0.6 nM.

Regarding `N#CC[C@H]1CC[C@H](n2c(CO/N=C(\N)CC3CC3)nc3cnc4[nH]ccc4c32)CC1` [Ex. 112, (Z)—N-((1-((1r,4r)-4-(Cyanomethyl)cyclohexyl)-1,6-dihydroimidazo[4,5-d]pyrrolo[2,3-b]pyridin-2-yl)methoxy)-2-cyclopropylacetimidamide], the concentration for half-maximal inhibition (IC50) is 40.8 nM on Tyk2-JH1JH2, 161 nM on JAK3-JH1JH2, 3.6 nM against JAK2-JH1JH2 and 0.6 nM at JAK1-JH1JH2.

Turning to `COCc1nc2cnc3[nH]ccc3c2n1[C@H]1CC[C@H](CC#N)CC1` [Ex. 113, 2-((1r,4r)-4-(2-(Methoxymethyl)imidazo[4,5-d]pyrrolo[2,3-b]pyridin-1(6H)-yl)cyclohexyl)acetonitrile], the half-maximal inhibitory concentration (IC50) was determined as 11.2 nM against Tyk2-JH1JH2, 322 nM against JAK3-JH1JH2, 10.2 nM on JAK2-JH1JH2 and 0.6 nM at JAK1-JH1JH2.

On to `N#CC[C@H]1CC[C@H](n2c(C(=O)NCCO)nc3cnc4[nH]ccc4c32)CC1` [Ex. 114, 1-((1r,4r)-4-(Cyanomethyl)cyclohexyl)-N-(2-hydroxyethyl)-1,6-dihydroimidazo[4,5-d]pyrrolo[2,3-b]pyridine-2-carboxamide], for which the 50% inhibitory concentration (IC50) at Tyk2-JH1JH2 was 12.7 nM; at JAK3-JH1JH2, 102 nM; at JAK2-JH1JH2 it was 4.8 nM; on JAK1-JH1JH2, 0.6 nM.

On to `N#CC[C@H]1CC[C@H](n2c(-c3ccc(C#N)nc3)nc3cnc4[nH]ccc4c32)CC1` [Ex. 115, 5-(1-((1r,4r)-4-(Cyanomethyl)cyclohexyl)-1,6-dihydroimidazo[4,5-d]pyrrolo[2,3-b]pyridin-2-yl)picolinonitrile], for which the concentration for half-maximal inhibition (IC50) was determined as 86.2 nM against Tyk2-JH1JH2, 754 nM on JAK3-JH1JH2, 73.2 nM against JAK2-JH1JH2 and 0.6 nM at JAK1-JH1JH2.

For `CC(C)(O)CC(=O)NCc1nc2cnc3[nH]ccc3c2n1[C@H]1CC[C@H](CC#N)CC1` [Ex. 116, N-((1-((1r,4r)-4-(Cyanomethyl)cyclohexyl)-1,6-dihydroimidazo[4,5-d]pyrrolo[2,3-b]pyridin-2-yl)methyl)-3-hydroxy-3-methylbutanamide], the 50% inhibitory concentration (IC50) was 50.9 nM against Tyk2-JH1JH2, 1190 nM against JAK3-JH1JH2, 86.7 nM against JAK2-JH1JH2 and 0.6 nM on JAK1-JH1JH2.

Take `N#CC[C@H]1CC[C@H](n2c(CC(=O)Nc3ccncc3)nc3cnc4[nH]ccc4c32)CC1` [Ex. 118, 2-(1-((1r,4r)-4-(Cyanomethyl)cyclohexyl)-1,6-dihydroimidazo[4,5-d]pyrrolo[2,3-b]pyridin-2-yl)-N-(pyridin-4-yl)acetamide]: the IC50 against Tyk2-JH1JH2 was determined as 5.4 nM; at JAK3-JH1JH2, 50.5 nM; at JAK2-JH1JH2, 3.5 nM; on JAK1-JH1JH2, 0.7 nM.

In the case of `N#CC[C@H]1CC[C@H](n2c(-c3cncs3)nc3cnc4[nH]ccc4c32)CC1` [Ex. 119, 2-((1r,4r)-4-(2-(Thiazol-5-yl)imidazo[4,5-d]pyrrolo[2,3-b]pyridin-1(6H)-yl)cyclohexyl)acetonitrile], the 50% inhibitory concentration (IC50) is 15.7 nM against Tyk2-JH1JH2, 117 nM at JAK3-JH1JH2, 8.8 nM against JAK2-JH1JH2 and 0.7 nM at JAK1-JH1JH2.

As for `COCCNC(=O)Cc1nc2cnc3[nH]ccc3c2n1[C@H]1CC[C@H](CC#N)CC1` [Ex. 120, 2-(1-((1r,4r)-4-(Cyanomethyl)cyclohexyl)-1,6-dihydroimidazo[4,5-d]pyrrolo[2,3-b]pyridin-2-yl)-N-(2-methoxyethyl)acetamide], the IC50 against Tyk2-JH1JH2 came out at 19.1 nM; against JAK3-JH1JH2, 228 nM; on JAK2-JH1JH2, 16 nM; at JAK1-JH1JH2, 0.7 nM.

`N#CC[C@H]1CC[C@H](n2c(-c3ccc(C(=O)c4ccc(CO)cc4)cc3)nc3cnc4[nH]ccc4c32)CC1` [Ex. 121, 2-((1r,4r)-4-(2-(4-(4-(Hydroxymethyl)benzoyl)phenyl)imidazo[4,5-d]pyrrolo[2,3-b]pyridin-1(6H)-yl)cyclohexyl)acetonitrile]: the IC50 worked out at 44.3 nM against Tyk2-JH1JH2, 431 nM against JAK3-JH1JH2, 11.4 nM against JAK2-JH1JH2 and 0.7 nM on JAK1-JH1JH2.

On to `N#CC[C@H]1CC[C@H](n2c(C(=O)NC3COC3)nc3cnc4[nH]ccc4c32)CC1` [Ex. 122, 1-((1r,4r)-4-(Cyanomethyl)cyclohexyl)-N-(oxetan-3-yl)-1,6-dihydroimidazo[4,5-d]pyrrolo[2,3-b]pyridine-2-carboxamide], for which the IC50 turned out to be 21.6 nM against Tyk2-JH1JH2, 437 nM at JAK3-JH1JH2, 20.8 nM against JAK2-JH1JH2 and 0.7 nM on JAK1-JH1JH2.

For the compound `N#CC[C@H]1CC[C@H](n2c(CO/N=C(\N)c3ccccc3)nc3cnc4[nH]ccc4c32)CC1` [Ex. 124, (Z*)—N-((1-((1r,4r)-4-(Cyanomethyl)cyclohexyl)-1,6-dihydroimidazo[4,5-d]pyrrolo[2,3-b]pyridin-2-yl)methoxy)benzimidamide], the half-inhibitory concentration (IC50) against Tyk2-JH1JH2 was determined as 18.1 nM; at JAK3-JH1JH2, 141 nM; at JAK2-JH1JH2 it was 4.4 nM; at JAK1-JH1JH2, 0.7 nM.

Take `COCC/C(=N/O)NCc1nc2cnc3[nH]ccc3c2n1[C@H]1CC[C@H](CC#N)CC1` [Ex. 125]: the IC50 at Tyk2-JH1JH2 amounted to 14.9 nM; against JAK3-JH1JH2 it was 622 nM; at JAK2-JH1JH2, 27.1 nM; at JAK1-JH1JH2, 0.7 nM.

In the case of `C#Cc1ccc(C(=O)c2ccc(COCc3nc4cnc5[nH]ccc5c4n3[C@H]3CC[C@H](CC#N)CC3)cc2)cc1` [Ex. 126, 2-((1r,4r)-4-(2-(((4-(4-Ethynylbenzoyl)benzyl)oxy)methyl)imidazo[4,5-d]pyrrolo[2,3-b]pyridin-1(6H)-yl)cyclohexyl)acetonitrile], the half-inhibitory concentration (IC50) at Tyk2-JH1JH2 came to 14.2 nM; against JAK3-JH1JH2, 317 nM; against JAK2-JH1JH2, 19.4 nM; on JAK1-JH1JH2, 0.7 nM.

Turning to `N#CC[C@H]1CC[C@H](n2c(CC(=O)N3CC[C@@H](O)C3)nc3cnc4[nH]ccc4c32)CC1` [Ex. 127, 2-((1r,4r)-4-(2-(2-((R)-3-Hydroxypyrrolidin-1-yl)-2-oxoethyl)imidazo[4,5-d]pyrrolo[2,3-b]pyridin-1(6H)-yl)cyclohexyl)acetonitrile], the IC50 against Tyk2-JH1JH2 amounted to 12.8 nM; against JAK3-JH1JH2, 788 nM; against JAK2-JH1JH2 it was 69.4 nM; on JAK1-JH1JH2, 0.7 nM.

As to `CCOC(=O)N1CC(c2nc3cnc4[nH]ccc4c3n2[C@H]2CC[C@H](CC#N)CC2)C1` [Ex. 128, Ethyl 3-(1-((1r,4r)-4-(Cyanomethyl)cyclohexyl)-1,6-dihydroimidazo[4,5-d]pyrrolo[2,3-b]pyridin-2-yl)azetidine-1-carboxylate], the IC50 against Tyk2-JH1JH2 came out at 64.4 nM; against JAK3-JH1JH2 it was 1090 nM; at JAK2-JH1JH2, 110 nM; at JAK1-JH1JH2, 0.7 nM.

Regarding `CC(C)c1noc(=O)n1Cc1nc2cnc3[nH]ccc3c2n1[C@H]1CC[C@H](CC#N)CC1` [Ex. 129, 2-((1r,4r)-4-(2-((3-Isopropyl-5-oxo-1,2,4-oxadiazol-4(5H)-yl)methyl)imidazo[4,5-d]pyrrolo[2,3-b]pyridin-1(6H)-yl)cyclohexyl)acetonitrile], the IC50 was 10.7 nM on Tyk2-JH1JH2, 2690 nM against JAK3-JH1JH2, 150 nM at JAK2-JH1JH2 and 0.8 nM at JAK1-JH1JH2.

Consider `C#Cc1ccc(C(=O)c2ccc(OCc3nc4cnc5[nH]ccc5c4n3[C@H]3CC[C@H](CC#N)CC3)cc2)cc1` [Ex. 130, 2-((1r,4r)-4-(2-((4-(4-Ethynylbenzoyl)phenoxy)methyl)imidazo[4,5-d]pyrrolo[2,3-b]pyridin-1(6H)-yl)cyclohexyl)acetonitrile], for which the IC50 was determined as 19.4 nM against Tyk2-JH1JH2, 130 nM on JAK3-JH1JH2, 15.7 nM at JAK2-JH1JH2 and 0.8 nM at JAK1-JH1JH2.
